From patent EP1832576A1, “4-Biarylyl-1-phenolyzetidin-2-ones” (Microbia Inc., priority 2003, dated 2005) come the findings set out here.

The structures appear in SMILES notation.

The subject of one test is cholesterol absorption from the intestine. Kind of test: In Vivo Assay of Hypolipidemic Agents using the Rat Cholesterol Absorption Model. On the set-up: species or system Female Sprague-Dawley rats. As to conditions: po, Table 1, footnote 1, perorally, 10 mg/kg, 3H levels in serum three hours after 3H-cholesterol. Put shortly:
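Fasted female Sprague-Dawley rats (150–250 g, 4–6/group) received compound orally in olive oil or vehicle. Thirty minutes later they were given 3–5 µCi ^3H-cholesterol orally in olive oil, and serum ^3H was counted at 3 h. Percent inhibition versus vehicle control is at a fixed dose; ED50 is the dose giving half-maximal effect on serum ^3H.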
`COc1ccc(-c2ccc([C@@H]3[C@@H](CC[C@H](O)c4ccc(F)cc4)C(=O)N3c3ccc(F)cc3)cc2)cc1` [Example 5, (3R,4S)-1-(4-fluorophenyl)-3-[(3S)-3-(4-fluorophenyl)-3-hydroxypropyl]-4-(4'-methoxybiphenyl-4-yl)azetidin-2-one] yielded an inhibition at 10 mg/kg of 26%.

On to `O=C1[C@H](CC[C@H](O)c2ccc(F)cc2)[C@@H](c2ccc(-c3cccc([N+](=O)[O-])c3)cc2)N1c1ccc(F)cc1` [Example 23, (3R,4S)-1-(4-fluorophenyl)-3-[(3S)-3-(4-fluorophenyl)-3-hydroxypropyl]-4-(3'-nitrobiphenyl-4-yl)azetidin-2-one], for which at 10 mg/kg the inhibition was 54%.

Staying with this test, now noted: po, Table 1, perorally, 1 mg/kg, 3H levels in serum three hours after 3H-cholesterol, versus vehicle only control.
In the case of `O=C1[C@H](CC[C@H](O)c2ccc(F)cc2)[C@@H](c2ccc(-c3cc(O)cc(O)c3)cc2)N1c1ccc(F)cc1` [Example 114, (3R,4S)-4-(3',5'-dihydroxybiphenyl-4-yl)-1-(4-fluorophenyl)-3-[(3S)-3-(4-fluorophenyl)-3-hydroxypropyl]azetidin-2-one], the inhibition at 1 mg/kg was 72%.

For the compound `COc1ccc(-c2ccc([C@@H]3[C@@H](CC[C@H](O)c4ccc(F)cc4)C(=O)N3c3ccc(F)cc3)cc2)c(OC)c1OC` [Example 96, (3R,4S)-1-(4-fluorophenyl)-3-[(3S)-3-(4-fluorophenyl)-3-hydroxypropyl]-4-(2',3',4'-trimethoxybiphenyl-4-yl)azetidin-2-one], 1 mg/kg produced 69% inhibition.

For the compound `CN(C)c1cccc(-c2ccc([C@@H]3[C@@H](CC[C@H](O)c4ccc(F)cc4)C(=O)N3c3ccc(F)cc3)cc2)c1` [Example 83, (3R,4S)-4-[3'-(dimethylamino)biphenyl-4-yl]-1-(4-fluorophenyl)-3-[(3 S)-3-(4-fluorophenyl)-3-hydroxypropyl]azetidin-2-one], at 1 mg/kg the inhibition was 38%.

`O=Cc1ccc(-c2ccc([C@@H]3[C@@H](CC[C@H](O)c4ccc(F)cc4)C(=O)N3c3ccc(F)cc3)cc2)cc1` [Example 99, 4'-{(2S,3R)-1-(4-fluorophenyl)-3-[(3S)-3-(4-fluorophenyl)-3-hydroxypropyl]-4-oxoazetidin-2-yl}-biphenyl-4-carbaldehyde] gave an inhibition at 1 mg/kg of 38%.

`O=C1[C@H](CC[C@H](O)c2ccc(F)cc2)[C@@H](c2ccc(-c3cccc(C(F)(F)F)c3)cc2)N1c1ccc(F)cc1` [Example 92, (3R,4S)-1-(4-fluorophenyl)-3-[(3S)-3-(4-fluorophenyl)-3-hydroxypropyl]-4-[3'-(trifluoromethyl)biphenyl-4-yl]azetidin-2-one]: the inhibition at 1 mg/kg is 17%.

`Cc1ccccc1-c1ccc([C@@H]2[C@@H](CC[C@H](O)c3ccc(F)cc3)C(=O)N2c2ccc(F)cc2)cc1` [Example 98, (3R,4S)-1-(4-fluorophenyl)-3-[(3S)-3-(4-fluorophenyl).3-hydroxypropyl]-4-(2'-methylbiphenyl-4-yl)azetidin-2-one]: the inhibition at 1 mg/kg was determined as 7%.

For `O=Cc1ccc(O)cc1-c1ccc([C@@H]2[C@@H](CC[C@H](O)c3ccc(F)cc3)C(=O)N2c2ccc(F)cc2)cc1` [Example 104, 4'-{(2S,3R)-1-(4-fluorophenyl)-3-[(3S)-3-(4-fluorophenyl)-3-hydroxypropyl]-4-oxoazetidin-2-yl}-5-hydroxybiphenyl-2-carbaldehyde], at 1 mg/kg the inhibition was 52%.

As to `CCOc1cccc(-c2ccc([C@@H]3[C@@H](CC[C@H](O)c4ccc(F)cc4)C(=O)N3c3ccc(F)cc3)cc2)c1` [Example 100, (3R,4S)-4-(3'-ethoxybiphenyl-4-yl)-1-(4-fluorophenyl)-3-[(3S)-3-(4-fluorophenyl)-3-hydroxypropyl]azetidin-2-one], at 1 mg/kg the inhibition was 54%.

The test is the same for the next values; noted with them: po, Table 2, footnote 6, perorally, 0.3 mg/kg.
`O=C1[C@H](CC[C@H](O)c2ccc(F)cc2)[C@@H](c2ccc(-c3ccc([C@@H]4O[C@H](CO)[C@@H](O)[C@H](O)[C@H]4O)cc3)cc2O)N1c1ccccc1` [Example 66, (1S)-1,5-Anhydro-1-(4'-{(2S,3R)-3-[(3S)-3-(4-fluorophenyl)-3-hydroxypropyl]-4-oxo-1-phenylazetidin-2-yl}-3'-hydroxybiphenyl-4-yl)-D-glucitol] had an inhibition at 0.3 mg/kg of 71%.

The term inhibition denotes the percentage by which the read-out fell short of the control. Low values mean a response near the control, high ones a response far below the control.
